The values below come from patent publication US20120193574A1, “Method Of Controlling Crystallization” (University of Durham, priority 2009, published 2012).

Entries after “also recorded” stand apart in the source; their conditions may differ.

The conditions of data set [1]: cited from earlier work.
A short description of data set [2]: Crystallisation in microemulsions under confinement; polymorph of the crystals by FTIR, TEM electron diffraction or Raman. The format is physicochemical. How it is done: Nanocrystals within the microemulsions were analysed by placing drops of the microemulsion onto TEM holey carbon grids and placing in a TEM. Nanocrystal images were taken and selected area electron diffraction patterns from the nanocrystals were captured, from which their polymorphic form could be determined.
Crystals/crystal aggregates were typically extracted via filtration. X-ray diffraction and/or FTIR and/or Raman microscopy techniques were used to determine the polymorph(s) of the extracted crystals/crystal aggregates.
A glycine microemulsion was prepared at ambient temperature containing 4.2 g heptane, 2.8 g of a 1:1 mass ratio of Span 80 and Brij 30, and 0.25 g of glycine solution containing 4% by mass of glycine in water. The microemulsion was shaken by hand to ensure homogeneous mixing. To this was added a microemulsion containing 1.8 g heptane, 2.8 g of a 1:1 mass ratio of Span 80 and Brij 30, 1 g of methanol and 0.25 g of water, with subsequent shaking to ensure homogeneous mixing. The resulting supersaturation ratio (c/csat) was 2.3. The resultant microemulsion was left to stand for 3 weeks at 25° C. […]
ROY microemulsions were prepared at ambient temperatures containing 10% by mass of Igepal CA720 in water and 30 μl/g or 60 μl/g of a ROY in toluene solution containing between 8% to 10% by mass of ROY. […] The crystals/crystal aggregates were extracted by filtration. […]

Data set [3] can be described thus: Supersaturated solutions stabilised due to confinement in microemulsions; visual inspection or optical microscopy on standing. The format is physicochemical. On the procedure: Glycine microemulsions prepared at ambient temperature containing 4.2 g heptane, 2.8 g of a 1:1 mass ratio of Span 80 and Brij 30, and 0.25 g of glycine solution containing 3-3.5% by mass of glycine in water. The microemulsion was shaken by hand to ensure homogeneous mixing. To this was added a microemulsion containing 1.8 g heptane, 2.8 g of a 1:1 mass ratio of Span 80 and Brij 30, 1 g of methanol and 0.25 g of water, with subsequent shaking to ensure homogeneous mixing. The resulting supersaturation ratio (c/csat) was at 1.7-2.0, i.e. sufficient to cause fast crystallisation of metastable forms in an unconfined system.
Glycine microemulsions prepared at 50° C. containing hexadecane, 15% by mass of a 1:1 mass ratio of Span 20 and Span 80, 1% by mass of ethanol and 1% by mass of a glycine aqueous solution containing 2.5% by mass of glycine. The microemulsion was placed in a water bath at 50° C. and cooled to 26° C. over 24 hours. The resulting supersaturation ratio (c/csat) was at least 4, i.e. sufficient to cause rapid crystallisation in an unconfined system.
ROY microemulsions prepared at ambient temperatures containing 10% by mass of Igepal CA720 in water, 30 μl/g of a toluene solution containing 6% by mass of ROY and 12 μl/g of heptane. The resulting supersaturation ratio (c/csat) was at least 4, i.e. sufficient to cause crystallisation typically within a few hours in an unconfined system.
The mefenamic acid-in-DMF bulk solutions and microemulsions, were prepared at elevated temperature (˜50-60° C.). The microemulsion consisted of 3 g of AOT solution containing 3% by mass of AOT in heptane to which was added 20 μl of a mefenamic acid solution containing 70-75 mg of mefenamic acid per ml DMF. The microemulsion was cooled from 50 to 8° C. over 12 hours and then left at 8° C. The resulting supersaturation ratio (c/csat) was 3.9-4.1, i.e. sufficient to cause crystallisation of metastable form II typically within a few hours in an unconfined system.

`Cc1cc(C#N)c(Nc2ccccc2[N+](=O)[O-])s1` [ROY, 5-Methyl-2-[(2-nitrophenyl)amino]-3-thiophenecarbonitrile]: the “energy of yellow prism form below the orange needle and orange prism forms” value in data set [1] (ambient temperatures) is about 0.0717 kcal/mol. The “polymorph of crystals/crystal aggregates (FTIR)” value in data set [2] (Example 5: Igepal CA720/water microemulsion, 8% to 10% ROY in toluene, dropwise heptane antisolvent, ambient) was “yellow prism polymorph of ROY”. Moreover, in data set [3] (6% ROY in toluene, Igepal CA720/water microemulsion with heptane, after 1 month), the “crystals by visual inspection or optical microscopy on standing” value (“crystals … on standing” for short) is “No crystals were observed”. Moreover, the “resulting supersaturation ratio (c/csat)” value in data set [3] (6% by mass ROY in toluene, 30 μl/g, Igepal CA720/water microemulsion, 12 μl/g heptane) was “at least 4”.

As to `NCC(=O)O` [glycine], the “temperatures at which the γ-phase is the most stable ambient pressure form” value in data set [1] (ambient pressure) is under 165 °C. Further, in data set [1] (ambient temperatures), the “energy of γ-phase below the α-phase” value was about 0.0478 kcal/mol. For the same molecule, the “energy of γ-phase below the β-phase” value in data set [1] (ambient temperatures) was about 0.143 kcal/mol. Also, the “stability of γ-polymorph over α-polymorph in the bulk phases” value in data set [1] (bulk phases) was about 0.048 kcal/mol. Also, the “resulting supersaturation ratio (c/csat)” value in data set [2] (Example 1: 4% by mass glycine solution in heptane/Span 80/Brij 30 microemulsion plus methanol antisolvent microemulsion) is 2.3; in data set [3] (2.5% by mass glycine solution, hexadecane/Span 20/Span 80 microemulsion cooled 50 to 26° C. over 24 hours), “at least 4”; in data set [3] (3-3.5% by mass glycine solution, heptane/Span 80/Brij 30 microemulsion plus methanol microemulsion) it was 1.7-2.0. In data set [2] (Example 1: methanol antisolvent microemulsion added, c/csat 2.3, 3 weeks at 25° C.), the “polymorph of extracted crystals (FTIR)” value was “predominantly of γ-glycine; also recorded: stable γ-polymorph of glycine with virtually no α-polymorph”. In addition, the “polymorph of nanocrystals/nanocrystal aggregates (TEM)” value in data set [2] (Example 2: hexadecane/Span 20/Span 80 microemulsion, 7% glycine solution, cooled 50 to 25° C. over 24 hours, after 7 days) is given as “predominantly of γ-glycine; also recorded: hexagonal γ-polymorph of glycine”. For the same molecule, the “polymorph of crystals/crystal aggregates (FTIR)” value in data set [2] (Example 3: heptane/Span 80/Brij 30 microemulsion, 4% glycine solution, vapour diffusion of methanol, ambient temperature) is listed as “predominantly the γ-polymorph of glycine with some α-polymorph”. For the same molecule, the “crystals … on standing” value is on record as “No crystals were observed” in data set [3] (2.5% glycine solution, hexadecane/Span 20/Span 80 microemulsion cooled to 26° C., after 1 month); “No crystals were observed” in data set [3] (microemulsion from 3% by mass glycine in water, after 3 months); “only a few μm sized crystals apparent” in data set [3] (microemulsion from 3.5% glycine in water, after 3 months).

`Cc1cccc(Nc2ccccc2C(=O)O)c1C` [mefenamic acid]: the “polymorph from crystallization in bulk DMF” value in data set [1] (irrespective of rate of crystallization or crystallization temperature) is given as “only produces the metastable form II”. For the same molecule, the “resulting supersaturation ratio (c/csat)” value is 4.4-5.5 in data set [2] (Example 4: 80-100 mg mefenamic acid per ml DMF in AOT/heptane microemulsion cooled from 50 to 8° C.) and 3.9-4.1 in data set [3] (70-75 mg mefenamic acid per ml DMF in AOT/heptane microemulsion cooled from 50 to 8° C.). The “polymorph of crystals (Raman)” value in data set [2] (Example 4: DMF-in-heptane/AOT microemulsion cooled from 50 to 8° C. over 12 hours) is “predominantly of Form I; also recorded: characteristic Form I peaks”. In addition, the “crystals … on standing” value in data set [3] (70-75 mg/ml mefenamic acid in DMF, AOT/heptane microemulsion at 8° C., after 1 month) is recorded as “No crystals were observed”.

B1: egg white albumin: Albumin is used to exemplify how protein crystallisation can be achieved (protein, UniProt P01012 2-386, looked up)
Ovalbumin: GSIGAASMEFCFDVFKELKVHHANENIFYCPIAIMSALAMVYLGAKDSTRTQINKVVRFDKLPGFGDSIEAQCGTSVNVHSSLRDILNQITKPNDVYSFSLASRLYAEERYPILPEYLQCVKELYRGGLEPINFQTAADQARELINSWVESQTNGIIRNVLQPSSVDSQTAMVLVNAIVFKGLWEKAFKDEDTQAMPFRVTEQESKPVQMMYQIGLFRVASMASEKMKILELPFASGTMSMLVLLPDEVSGLEQLESIINFEKLTEWTSSNVMEERKIKVYLPRMKMEEKYNLTSVLMAMGITDVFSSSANLSGISSAESLKISQAVHAAHAEINEAGREVVGSAEAGVDAASVSEEFRADHPFLFCIKHIATNAVLFFGRCVSP
Take B1: the “crystallisation observed by optical microscopy” value in data set [2] (Example 6: isooctane/AOT microemulsion, 5 mg albumin per ml water, methanol microemulsion added, after 48 hours) is reported as “crystals observed”.
